Experimental data taken from patent publication US20160324796A1, “COMPOSITIONS AND THEIR USE TO TREAT COMPLICATIONS OF ANEURYSMAL SUBARACHNOID HEMMORRHAGE” (Edge Therapeutics, Inc., priority 2007, published 2016).
Like-named read-outs stand apart in the source and are kept apart here.

How the values were obtained:
[1] = Preclinical Study 2: CSF (cisterna magna) concentration of nimodipine; type: in vivo, mongrel dogs; conditions: oral nimodipine 0.86 mg/kg six times per day
Text: (§1) On days 8 and 15, the animals were anesthetized, and angiography, removal of CSF from the cistern magna and collection of plasma, were repeated. Other endpoints included daily blood pressure measurements, behavior assessment, and brain and spinal cord pathology. Animals were euthanized under anesthesia on day 28 or 49, perfused with PBS and then neutral buffered formalin, and the brains subjected to histological analysis.
Values are means±standard error of the mean (n=8 per measurement).

[2] = cited from earlier work
[3] = Mice, Male, cited from earlier work
[4] = cited from earlier work; remark: listed apart in the source
[5] = Plasma nimodipine after single subcutaneous injection of nimodipine PLGA microparticles; type: in vivo, Wistar rats; conditions: rats, up to day 15
Experimental: The rats were divided into separate treatment groups: one control group for treatment with a nimodipine reference solution (control group) and several test groups for treatment with exemplary nimodipine formulations (microparticle test group) according to the described invention. […] The test article was reconstituted with an injection vehicle volume of 0.15 or 0.70 ml, and the entire volume of each reconstituted vial was drawn up immediately and administered individually to each animal. Blood samples were collected from two alternating cohorts of 2 or 3 animals per cohort in the microparticle formulation-injected groups. Collection was immediately before injection and then 1, 12, and 24 hours post dose, and on days 4, 8, 11, and 15. After the last blood sample collection interval, the surviving animals were euthanized via carbon dioxide inhalation. Euthanasia was confirmed by cervical dislocation and anesthesia.

[6] = Rats, Male, cited from earlier work
[7] = mongrel, dog, in vivo
Text: as §1
The animals are grouped according to whether the animals died or were euthanized at an unscheduled time (DOS) or underwent scheduled necropsy (SNC).

Structure (SMILES): COCCOC(=O)C1=C(C)NC(C)=C(C(=O)OC(C)C)C1c1cccc([N+](=O)[O-])c1 (stereo not shown) [nimodipine, Isopropyl 2-methoxyethyl 1,4-dihydro-2,6-dimethyl-4-(m-nitrophenyl)-3,5-pyridinedicarboxylate]
- CSF nimodipine concentrations [1]: low or undetectable
- LD50 ([2]; Rabbits, Female, Intravenous): 2.5 mg/kg
- LD50 ([2]; female, rabbit, in vivo, po): 5000 mg/kg
- LD50 ([3]; Intravenous): 33 mg/kg
- LD50 ([3]; Oral): 3562 mg/kg
- LD50 ([4]; Dogs, Male and female, Intravenous): 4 mg/kg
- LD50 ([4]; both, dog, in vivo, po): 1000 to 2000 mg/kg
- plasma nimodipine concentrations over time [5]: sustained release of nimodipine over time
- LD50 ([6]; Intravenous): 16 mg/kg
- LD50 ([6]; Oral): 6599 mg/kg
- Brain discoloration, red, # of animals ([7]; female, 28 d): 0
- Brain focus/foci, red, # of animals ([7]; female, 28 d): 0
- Brain nodule, # of animals ([7]; female, 28 d): 0
- Brain: chromatolysis, central, neuronal; minimal ([7]; female, 28 d): 0
- Brain: degeneration, axonal/myelin; mild ([7]; female, 28 d): 0
- Brain: degeneration, axonal/myelin; minimal ([7]; female, 28 d): 0
- Brain: degeneration; mild ([7]; female, 28 d): 0
- Brain: degeneration; minimal ([7]; female, 28 d): 0
- Brain: fibroplasia; mild ([7]; female, 28 d): 0
- Brain: fibroplasia; minimal ([7]; female, 28 d): 0
- Brain: granulation tissue; mild ([7]; female, 28 d): 0
- Brain: granulation tissue; minimal ([7]; female, 28 d): 0
- Brain: hemorrhage; minimal ([7]; female, 28 d): 0
- Brain: hemorrhage; moderate ([7]; female, 28 d): 0
- Brain: inflammation, granulomous; minimal ([7]; female, 28 d): 0
- Brain: inflammation, meningeal; minimal ([7]; female, 28 d): 0
- Brain: inflammation, subacute/chronic; mild ([7]; female, 28 d): 0
- Brain: macrophages, pigmented; mild ([7]; female, 28 d): 0
- Brain: macrophages, pigmented; minimal ([7]; female, 28 d): 0
- Brain: mineralization focal; minimal ([7]; female, 28 d): 0
- Brain: neovascularization; minimal ([7]; female, 28 d): 0
- Brain: within normal limits ([7]; female, 28 d): 0
- Spinal Cord, Cervical: degeneration, axonal/myelin; minimal ([7]; female, 28 d): 0
- Spinal Cord, Cervical: fibroplasia; minimal ([7]; female, 28 d): 0
- Spinal Cord, Cervical: fibroplasia; moderate ([7]; female, 28 d): 0
- Spinal Cord, Cervical: inflammation, granulomatous; minimal ([7]; female, 28 d): 0
- Spinal Cord, Cervical: inflammation, subacute/chronic; mild ([7]; female, 28 d): 0
- Spinal Cord, Cervical: macrophages, pigmented; minimal ([7]; female, 28 d): 0
- Spinal Cord, Cervical: within normal limits ([7]; female, 28 d): 0
- Spinal Cord, Lumbar: fibroplasia; minimal ([7]; female, 28 d): 0
- Spinal Cord, Lumbar: hemorrhage; minimal ([7]; female, 28 d): 0
- Spinal Cord, Lumbar: mineralization; minimal ([7]; female, 28 d): 0
- Spinal Cord, Lumbar: within normal limits ([7]; female, 28 d): 0
- Spinal Cord, Thoracic: fibroplasia; minimal ([7]; female, 28 d): 0
- Spinal Cord, Thoracic: hemorrhage; minimal ([7]; female, 28 d): 0
- Spinal Cord, Thoracic: inflammation, granulomatous; minimal ([7]; female, 28 d): 0
- Spinal Cord, Thoracic: inflammation, subacute/chronic; minimal ([7]; female, 28 d): 0
- Spinal Cord, Thoracic: macrophages, pigmented; minimal ([7]; female, 28 d): 0
- Spinal Cord, Thoracic: within normal limits ([7]; female, 28 d): 0
- Brain discoloration, red, # of animals ([7]; female, 49 d): 0
- Brain focus/foci, red, # of animals ([7]; female, 49 d): 0
- Brain nodule, # of animals ([7]; female, 49 d): 0
- Brain: chromatolysis, central, neuronal; minimal ([7]; female, 49 d): 0
- Brain: degeneration, axonal/myelin; mild ([7]; female, 49 d): 0
- Brain: degeneration, axonal/myelin; minimal ([7]; female, 49 d): 0
- Brain: degeneration; mild ([7]; female, 49 d): 0
- Brain: fibroplasia; mild ([7]; female, 49 d): 0
- Brain: fibroplasia; minimal ([7]; female, 49 d): 0
- Brain: granulation tissue; mild ([7]; female, 49 d): 0
- Brain: granulation tissue; minimal ([7]; female, 49 d): 0
- Brain: hemorrhage; mild ([7]; female, 49 d): 0
- Brain: hemorrhage; minimal ([7]; female, 49 d): 0
- Brain: hemorrhage; moderate ([7]; female, 49 d): 0
- Brain: infiltration, lymphoid, perivascular; minimal ([7]; female, 49 d): 0
- Brain: inflammation, granulomous; mild ([7]; female, 49 d): 0
- Brain: inflammation, granulomous; minimal ([7]; female, 49 d): 0
- Brain: inflammation, meningeal; minimal ([7]; female, 49 d): 0
- Brain: inflammation, subacute/chronic; mild ([7]; female, 49 d): 0
- Brain: macrophages, pigmented; mild ([7]; female, 49 d): 0
- Brain: macrophages, pigmented; minimal ([7]; female, 49 d): 0
- Brain: mineralization focal; minimal ([7]; female, 49 d): 0
- Brain: neovascularization; minimal ([7]; female, 49 d): 0
- Brain: within normal limits ([7]; female, 49 d): 0
- Spinal Cord, Cervical: degeneration, axonal/myelin; minimal ([7]; female, 49 d): 0
- Spinal Cord, Cervical: fibroplasia; mild ([7]; female, 49 d): 0
- Spinal Cord, Cervical: fibroplasia; minimal ([7]; female, 49 d): 0
- Spinal Cord, Cervical: fibroplasia; moderate ([7]; female, 49 d): 0
- Spinal Cord, Cervical: hemorrhage; minimal ([7]; female, 49 d): 0
- Spinal Cord, Cervical: inflammation, granulomatous; minimal ([7]; female, 49 d): 0
- Spinal Cord, Cervical: inflammation, granulomatous; moderate ([7]; female, 49 d): 0
- Spinal Cord, Cervical: inflammation, subacute/chronic; mild ([7]; female, 49 d): 0
- Spinal Cord, Cervical: macrophages, pigmented; minimal ([7]; female, 49 d): 0
- Spinal Cord, Cervical: within normal limits ([7]; female, 49 d): 0
- Spinal Cord, Lumbar: fibroplasia; minimal ([7]; female, 49 d): 0
- Spinal Cord, Lumbar: hemorrhage; minimal ([7]; female, 49 d): 0
- Spinal Cord, Lumbar: mineralization; minimal ([7]; female, 49 d): 0
- Spinal Cord, Lumbar: within normal limits ([7]; female, 49 d): 0
- Spinal Cord, Thoracic: fibroplasia; minimal ([7]; female, 49 d): 0
- Spinal Cord, Thoracic: hemorrhage; minimal ([7]; female, 49 d): 0
- Spinal Cord, Thoracic: inflammation, granulomatous; minimal ([7]; female, 49 d): 0
- Spinal Cord, Thoracic: inflammation, subacute/chronic; minimal ([7]; female, 49 d): 0
- Spinal Cord, Thoracic: macrophages, pigmented; minimal ([7]; female, 49 d): 0
- Spinal Cord, Thoracic: within normal limits ([7]; female, 49 d): 0
- Brain discoloration, red, # of animals ([7]; male, 28 d): 0
- Brain focus/foci, red, # of animals ([7]; male, 28 d): 0
- Brain nodule, # of animals ([7]; male, 28 d): 0
- Brain: chromatolysis, central, neuronal; minimal ([7]; male, 28 d): 0
- Brain: degeneration, axonal/myelin; mild ([7]; male, 28 d): 0
- Brain: degeneration, axonal/myelin; minimal ([7]; male, 28 d): 0
- Brain: degeneration; mild ([7]; male, 28 d): 0
- Brain: degeneration; minimal ([7]; male, 28 d): 0
- Brain: granulation tissue; mild ([7]; male, 28 d): 0
- Brain: granulation tissue; minimal ([7]; male, 28 d): 0
- Brain: hemorrhage; mild ([7]; male, 28 d): 0
- Brain: hemorrhage; minimal ([7]; male, 28 d): 0
- Brain: hemorrhage; moderate ([7]; male, 28 d): 0
- Brain: infiltration, lymphoid, perivascular; minimal ([7]; male, 28 d): 0
- Brain: inflammation, meningeal; minimal ([7]; male, 28 d): 0
- Brain: inflammation, subacute/chronic; mild ([7]; male, 28 d): 0
- Brain: inflammation, subacute/chronic; minimal ([7]; male, 28 d): 0
- Brain: macrophages, pigmented; minimal ([7]; male, 28 d): 0
- Brain: mineralization focal; minimal ([7]; male, 28 d): 0
- Brain: neovascularization; minimal ([7]; male, 28 d): 0
- Brain: within normal limits ([7]; male, 28 d): 0
- Spinal Cord, Cervical: degeneration, axonal/myelin; minimal ([7]; male, 28 d): 0
- Spinal Cord, Cervical: fibroplasia; minimal ([7]; male, 28 d): 0
- Spinal Cord, Cervical: inflammation, granulomatous; moderate ([7]; male, 28 d): 0
- Spinal Cord, Cervical: within normal limits ([7]; male, 28 d): 0
- Spinal Cord, Lumbar: fibroplasia; minimal ([7]; male, 28 d): 0
- Spinal Cord, Lumbar: hemorrhage; minimal ([7]; male, 28 d): 0
- Spinal Cord, Lumbar: mineralization; minimal ([7]; male, 28 d): 0
- Spinal Cord, Lumbar: within normal limits ([7]; male, 28 d): 0
- Spinal Cord, Thoracic: fibroplasia; minimal ([7]; male, 28 d): 0
- Spinal Cord, Thoracic: hemorrhage; minimal ([7]; male, 28 d): 0
- Spinal Cord, Thoracic: inflammation, granulomatous; minimal ([7]; male, 28 d): 0
- Spinal Cord, Thoracic: inflammation, subacute/chronic; minimal ([7]; male, 28 d): 0
- Spinal Cord, Thoracic: macrophages, pigmented; minimal ([7]; male, 28 d): 0
- Spinal Cord, Thoracic: within normal limits ([7]; male, 28 d): 0
- Brain discoloration, red, # of animals ([7]; male, 49 d): 0
- Brain focus/foci, red, # of animals ([7]; male, 49 d): 0
- Brain nodule, # of animals ([7]; male, 49 d): 0
- Brain: chromatolysis, central, neuronal; minimal ([7]; male, 49 d): 0
- Brain: degeneration, axonal/myelin; mild ([7]; male, 49 d): 0
- Brain: degeneration, axonal/myelin; minimal ([7]; male, 49 d): 0
- Brain: degeneration; mild ([7]; male, 49 d): 0
- Brain: degeneration; minimal ([7]; male, 49 d): 0
- Brain: fibroplasia; minimal ([7]; male, 49 d): 0
- Brain: granulation tissue; mild ([7]; male, 49 d): 0
- Brain: granulation tissue; minimal ([7]; male, 49 d): 0
- Brain: hemorrhage; mild ([7]; male, 49 d): 0
- Brain: hemorrhage; minimal ([7]; male, 49 d): 0
- Brain: hemorrhage; moderate ([7]; male, 49 d): 0
- Brain: infiltration, lymphoid, perivascular; minimal ([7]; male, 49 d): 0
- Brain: inflammation, granulomous; mild ([7]; male, 49 d): 0
- Brain: inflammation, meningeal; minimal ([7]; male, 49 d): 0
- Brain: inflammation, subacute/chronic; mild ([7]; male, 49 d): 0
- Brain: macrophages, pigmented; mild ([7]; male, 49 d): 0
- Brain: macrophages, pigmented; minimal ([7]; male, 49 d): 0
- Brain: mineralization focal; minimal ([7]; male, 49 d): 0
- Brain: neovascularization; minimal ([7]; male, 49 d): 0
- Brain: within normal limits ([7]; male, 49 d): 0
- Spinal Cord, Cervical: degeneration, axonal/myelin; minimal ([7]; male, 49 d): 0
- Spinal Cord, Cervical: fibroplasia; minimal ([7]; male, 49 d): 0
- Spinal Cord, Cervical: fibroplasia; moderate ([7]; male, 49 d): 0
- Spinal Cord, Cervical: hemorrhage; minimal ([7]; male, 49 d): 0
- Spinal Cord, Cervical: inflammation, granulomatous; minimal ([7]; male, 49 d): 0
- Spinal Cord, Cervical: inflammation, granulomatous; moderate ([7]; male, 49 d): 0
- Spinal Cord, Cervical: inflammation, subacute/chronic; mild ([7]; male, 49 d): 0
- Spinal Cord, Cervical: macrophages, pigmented; minimal ([7]; male, 49 d): 0
- Spinal Cord, Lumbar: fibroplasia; minimal ([7]; male, 49 d): 0
- Spinal Cord, Lumbar: hemorrhage; minimal ([7]; male, 49 d): 0
- Spinal Cord, Lumbar: mineralization; minimal ([7]; male, 49 d): 0
- Spinal Cord, Lumbar: within normal limits ([7]; male, 49 d): 0
- Spinal Cord, Thoracic: fibroplasia; minimal ([7]; male, 49 d): 0
- Spinal Cord, Thoracic: hemorrhage; minimal ([7]; male, 49 d): 0
- Spinal Cord, Thoracic: inflammation, granulomatous; minimal ([7]; male, 49 d): 0
- Spinal Cord, Thoracic: inflammation, subacute/chronic; minimal ([7]; male, 49 d): 0
- Spinal Cord, Thoracic: macrophages, pigmented; minimal ([7]; male, 49 d): 0
- Spinal Cord, Thoracic: within normal limits ([7]; male, 49 d): 0
